In US20260042764A1, “COMPOSITIONS AND METHODS FOR INHIBITION OF KRAS” (TheRas, Inc., priority 2022, published 2026):

Tests used:
[1] = test system: H358 cells (KRAS G12C); assay: Cell-based pERK HTRF assay in H358 cells (Biological Example 5)
Procedure, shortened: (§1)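 A two-hour compound treatment (0.25% DMSO) of cells seeded the previous day preceded lysis and HTRF phospho-ERK1/2 detection. EC50 values were fitted by variable-slope four-parameter regression.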

[2] = test system: HPAC cells (KRAS G12D); assay: Cell-based pERK HTRF assay in HPAC cells (Biological Example 5)
Procedure, shortened: as §1

[3] = test system: Capan-2 cells (KRAS G12V); assay: Cell-based pERK HTRF assay in Capan-2 cells (Biological Example 5)
Procedure, shortened: as §1

[4] = test system: HT1080 cells (NRAS); assay: Cell-based pERK HTRF assay in HT1080 cells (Biological Example 5)
Procedure, shortened: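 Cells seeded at 2.5×10^4/well in 10% FBS medium overnight, then treated 2 h at 37° C with a 9-point, three-fold compound dilution series (0.25% DMSO final). Lysates were read by HTRF for pERK1/2 (Thr202/Tyr204) after 24 h at 4° C; EC50 came from a four-parameter fit of 665/620 nm ratios.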

[5] = test system: SW1900 cells (KRAS G12D); assay: Cell-based pERK HTRF assay in SW1900 cells (Biological Example 5)
Procedure, shortened: as §1

[6] = test system: MKN1 cells (KRAS amplification); assay: Cell-based pERK HTRF assay in MKN1 cells (Biological Example 5)
Procedure, shortened: as §1

[7] = test system: H358 cells (KRAS G12C); assay: 3D Cell viability assay in H358 cells (Biological Example 6); assay type: cell-based; conditions: Homo sapiens, NCI-H358; H358 (KRAS G12C) spheroids, 72 hours
Procedure, shortened: (§2)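 EC50 values come from a four-parameter variable-slope fit of CellTiter-Glo 3D luminescence in spheroid cultures treated 72 h with a nine-point, three-fold dilution series.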

[8] = test system: HT1080 cells (NRAS); assay: 3D Cell viability assay in HT1080 cells (Biological Example 6); assay type: cell-based; conditions: Homo sapiens, HT-1080; HT1080 (NRAS) spheroids, 72 hours
Procedure, shortened: as §2

[9] = test system: MKN1 cells (KRAS amplification); assay: 3D Cell viability assay in MKN1 cells (Biological Example 6); assay type: cell-based; conditions: Homo sapiens, MKN-1; MKN (MKN1, KRAS amplification) spheroids, 72 hours
Procedure, shortened: as §2

[10] = test system: SW1900 cells (KRAS G12D); assay: 3D Cell viability assay in SW1900 cells (Biological Example 6); assay type: cell-based; conditions: Homo sapiens; SW1990 (text: SW1900, KRAS G12D) spheroids, 72 hours
Procedure, shortened: as §2

[11] = test system: HPAC cells (KRAS G12D); assay: 3D Cell viability assay in HPAC cells (Biological Example 6); assay type: cell-based; conditions: Homo sapiens, HPAC, 72 h, HPAC (KRAS G12D) spheroids
Procedure, shortened: as §2

[12] = test system: Capan-2 cells (KRAS G12V); assay: 3D Cell viability assay in Capan-2 cells (Biological Example 6); assay type: cell-based; conditions: Homo sapiens; Capan-2 (KRAS G12V) spheroids, 72 hours
Procedure, shortened: as §2

[13] = test system: AsPC-1 cells (KRAS G12D); assay: 3D Cell viability assay in AsPC-1 cells (Biological Example 6); assay type: cell-based; conditions: Homo sapiens, ASPC1; AsPC-1 (KRAS G12D) spheroids, 72 hours
Procedure, shortened: as §2

[14] = test system: RKN cells (KRAS G12V); assay: 3D Cell viability assay in RKN cells (Biological Example 6); assay type: cell-based; conditions: RKN (KRAS G12V) spheroids, 72 hours
Procedure, shortened: as §2

[15] = test system: RKN cells (KRAS G12V); assay: Cell-based pERK HTRF assay in RKN cells (Biological Example 5)
Procedure, shortened: as §1

[16] = Homo sapiens, NCI-H358, H358 (KRAS G12C) cells
[17] = Homo sapiens, Capan-2, Capan-2 (KRAS G12V) cells
[18] = Homo sapiens, SW1990, SW1990 cells (text: SW1900, KRAS G12D)
[19] = Homo sapiens, MKN-1, MKN cells (MKN1, KRAS amplification)

## CCN(c1nc(OC[C@@]23CCCN2C[C@H](F)C3)nc2c(F)c(-c3ccc(F)c4sc(N)c(C#N)c34)c(C(F)(F)F)cc12)[C@H]1CCN(C(=O)C(C)C)C1 (atropisomer, axis not shown) [Compound 468]
[1]; H358 (KRAS G12C) cells
  IC50: > 1000 nM
[2]
  IC50: > 1000 nM
[3]; Capan-2 (KRAS G12V) cells
  IC50: > 1000 nM
[4]
  IC50: > 1000 nM
[5]; SW1990 cells (text: SW1900, KRAS G12D)
  IC50: > 1000 nM
[6]; MKN cells (MKN1, KRAS amplification)
  IC50: > 1000 nM

## CCN(c1nc(OC[C@@]23CCCN2C[C@H](F)C3)nc2c(F)c(-c3ccc(F)c4sc(N)c(C#N)c34)c(C(F)(F)F)cc12)[C@H]1CCS(=O)(=O)C1 (atropisomer, axis not shown) [Compound 492]
[7]
  IC50: ≤ 100 nM
[1]; [16]
  IC50: ≤ 100 nM
[8]
  IC50: > 1000 nM
[2]; Homo sapiens, HPAC
  IC50: ≤ 100 nM
[3]; [17]
  IC50: ≤ 100 nM
[4]; Homo sapiens, HT-1080
  IC50: > 1000 nM
[9]
  IC50: ≤ 100 nM
[5]; [18]
  IC50: ≤ 100 nM
[10]
  IC50: ≤ 100 nM
[11]
  IC50: ≤ 100 nM
[6]; [19]
  IC50: ≤ 100 nM
[12]
  IC50: ≤ 100 nM
[13]
  IC50: ≤ 100 nM

## CCN(c1nc(OC[C@@]23CCCN2C[C@H](F)C3)nc2c(F)c(-c3ccc(F)c4sc(N)c(C#N)c34)c(C(F)(F)F)cc12)[C@H]1C[C@@H]2COC(=O)N2C1 (atropisomer, axis not shown) [Compound 519]
[7]
  IC50: ≤ 100 nM
[1]; [16]
  IC50: ≤ 100 nM
[2]; Homo sapiens, HPAC
  IC50: 100 to 1000 nM
[3]; [17]
  IC50: ≤ 100 nM
[9]
  IC50: ≤ 100 nM
[5]; [18]
  IC50: ≤ 100 nM
[10]
  IC50: ≤ 100 nM
[14]
  IC50: ≤ 100 nM
[11]
  IC50: 100 to 1000 nM
[6]; [19]
  IC50: ≤ 100 nM
[12]
  IC50: ≤ 100 nM
[15]
  IC50: ≤ 100 nM
[13]
  IC50: ≤ 100 nM

## CCN(c1nc(OC[C@@]23CCCN2C[C@H](F)C3)nc2c(F)c(-c3ccc(F)c4sc(N)c(C#N)c34)c(C(F)(F)F)cc12)[C@H]1C[C@H]2COC(=O)N2C1 (atropisomer, axis not shown; (aS)) [Compound 518, 2-amino-4-((S)-4-(ethyl((6S,7aS)-3-oxotetrahydro-1H,3H-pyrrolo[1,2-c]oxazol-6-yl)amino)-8-fluoro-2-(((2R,7aS)-2-fluorotetrahydro-1H-pyrrolizin-7a(5H)-yl)methoxy)-6-(trifluoromethyl)quinazolin-7-yl)-7-fluorobenzo[b]thiophene-3-carbonitrile]
[7]
  IC50: ≤ 100 nM
[1]; [16]
  IC50: ≤ 100 nM
[2]; Homo sapiens, HPAC
  IC50: 100 to 1000 nM
[3]; [17]
  IC50: ≤ 100 nM
[9]
  IC50: ≤ 100 nM
[5]; [18]
  IC50: ≤ 100 nM
[10]
  IC50: ≤ 100 nM
[14]
  IC50: ≤ 100 nM
[11]
  IC50: ≤ 100 nM
[6]; [19]
  IC50: ≤ 100 nM
[12]
  IC50: ≤ 100 nM
[15]
  IC50: ≤ 100 nM
[13]
  IC50: ≤ 100 nM

## CCN(c1nc(OC[C@@]23CCCN2C[C@H](F)C3)nc2c(F)c(-c3ccc(F)c4sc(N)c(C#N)c34)c(C(F)(F)F)cc12)[C@H]1C[C@H]2CN(C)C(=O)N2C1 (atropisomer, axis not shown; (aS)) [Compound 543, 2-amino-4-((S)-4-(ethyl((6S,7aS)-2-methyl-3-oxohexahydro-1H-pyrrolo[1,2-c]imidazol-6-yl)amino)-8-fluoro-2-(((2R,7aS)-2-fluorotetrahydro-1H-pyrrolizin-7a(5H)-yl)methoxy)-6-(trifluoromethyl)quinazolin-7-yl)-7-fluorobenzo[b]thiophene-3-carbonitrile]
[7]
  IC50: ≤ 100 nM
[1]; [16]
  IC50: ≤ 100 nM
[2]; Homo sapiens, HPAC
  IC50: ≤ 100 nM
[3]; [17]
  IC50: ≤ 100 nM
[9]
  IC50: ≤ 100 nM
[5]; [18]
  IC50: ≤ 100 nM
[10]
  IC50: ≤ 100 nM
[14]
  IC50: ≤ 100 nM
[11]
  IC50: ≤ 100 nM
[6]; [19]
  IC50: ≤ 100 nM
[12]
  IC50: ≤ 100 nM
[15]
  IC50: ≤ 100 nM
[13]
  IC50: ≤ 100 nM

## CCOC(=O)N1CC[C@H](N(CC)c2nc(OC[C@@]34CCCN3C[C@H](F)C4)nc3c(F)c(-c4ccc(F)c5sc(N)c(C#N)c45)c(C(F)(F)F)cc23)C1 [Compound 467]
[7]
  IC50: ≤ 100 nM
[1]; [16]
  IC50: ≤ 100 nM
[8]
  IC50: > 1000 nM
[2]; Homo sapiens, HPAC
  IC50: 100 to 1000 nM
[3]; [17]
  IC50: ≤ 100 nM
[4]; Homo sapiens, HT-1080
  IC50: > 1000 nM
[9]
  IC50: ≤ 100 nM
[5]; [18]
  IC50: ≤ 100 nM
[10]
  IC50: ≤ 100 nM
[11]
  IC50: > 1000 nM
[6]; [19]
  IC50: ≤ 100 nM
[12]
  IC50: ≤ 100 nM
[13]
  IC50: ≤ 100 nM

## CCN(c1nc(OC[C@@]23CCCN2C[C@H](F)C3)nc2c(F)c(-c3ccc(F)c4sc(N)c(C#N)c34)c(C(F)(F)F)cc12)[C@H]1C[C@H](C)N(C(=O)C2CC2)C1 [Compound 470]
[7]
  IC50: ≤ 100 nM
[1]; [16]
  IC50: ≤ 100 nM
[8]
  IC50: > 1000 nM
[2]; Homo sapiens, HPAC
  IC50: 100 to 1000 nM
[3]; [17]
  IC50: ≤ 100 nM
[4]; Homo sapiens, HT-1080
  IC50: > 1000 nM
[9]
  IC50: ≤ 100 nM
[5]; [18]
  IC50: ≤ 100 nM
[10]
  IC50: ≤ 100 nM
[11]
  IC50: > 1000 nM
[6]; [19]
  IC50: ≤ 100 nM
[12]
  IC50: ≤ 100 nM
[13]
  IC50: ≤ 100 nM

## Cc1cc2n(n1)CCN(c1nc(OCC34CCCN3CC(F)C4)nc3c(F)c(-c4ccc(F)c5sc(N)c(C#N)c45)c(C(F)(F)F)cc13)C2 (centres unmarked) [Compound 484]
[7]
  IC50: ≤ 100 nM
[1]; [16]
  IC50: ≤ 100 nM
[8]
  IC50: > 1000 nM
[2]; Homo sapiens, HPAC
  IC50: 100 to 1000 nM
[3]; [17]
  IC50: ≤ 100 nM
[4]; Homo sapiens, HT-1080
  IC50: > 1000 nM
[9]
  IC50: 100 to 1000 nM
[5]; [18]
  IC50: ≤ 100 nM
[10]
  IC50: ≤ 100 nM
[11]
  IC50: 100 to 1000 nM
[6]; [19]
  IC50: ≤ 100 nM
[12]
  IC50: ≤ 100 nM
[13]
  IC50: ≤ 100 nM

## N#Cc1c(N)sc2c(F)ccc(-c3c(C(F)(F)F)cc4c(N5CCn6nc(N7CCOCC7)cc6C5)nc(OC[C@@]56CCCN5C[C@H](F)C6)nc4c3F)c12 [Compound 485]
[7]
  IC50: ≤ 100 nM
[1]; [16]
  IC50: ≤ 100 nM
[8]
  IC50: > 1000 nM
[2]; Homo sapiens, HPAC
  IC50: 100 to 1000 nM
[3]; [17]
  IC50: ≤ 100 nM
[4]; Homo sapiens, HT-1080
  IC50: > 1000 nM
[9]
  IC50: 100 to 1000 nM
[5]; [18]
  IC50: ≤ 100 nM
[10]
  IC50: ≤ 100 nM
[11]
  IC50: 100 to 1000 nM
[6]; [19]
  IC50: ≤ 100 nM
[12]
  IC50: ≤ 100 nM
[13]
  IC50: ≤ 100 nM
